Reference: ChEMBL document CHEMBL4376823, “The discovery of a potent and selective third-generation EGFR kinase inhibitor as a therapy for EGFR L858R/T790M double mutant non-small cell lung cancer” (Eur J Med Chem, 2019)

Experiments:
[1] = test system: NCI-H1975; assay: Induction of apoptosis in human NCI-H1975 cells assessed as necrotic cells at 5 nM incubated for 48 hrs by propidium iodide and annexin-V FITC staining based flow cytometry (reference value: 0.01 %); assay type: functional
[2] = test system: NCI-H1975; assay: Induction of apoptosis in human NCI-H1975 cells assessed as early apoptotic cells at 25 nM incubated for 48 hrs by propidium iodide and annexin-V FITC staining based flow cytometry (reference value: 0.95 %); assay type: functional
[3] = test system: NCI-H1975; assay: Induction of apoptosis in human NCI-H1975 cells assessed as early apoptotic cells at 50 nM incubated for 48 hrs by propidium iodide and annexin-V FITC staining based flow cytometry (reference value: 0.95 %); assay type: functional
[4] = test system: NCI-H1975; assay: Induction of apoptosis in human NCI-H1975 cells assessed as early apoptotic cells at 25 nM incubated for 24 hrs by propidium iodide and annexin-V FITC staining based flow cytometry (reference value: 0.94 %); assay type: functional
[5] = biological target: T1, Epidermal growth factor receptor (Homo sapiens, UniProt P00533); assay: Inhibition of EGFR in human NCI-H292 cells assessed as reduction in EGFR Y1068 phosphorylation at incubated for 4 hrs by Western blot analysis; assay type: cell-based
[6] = test system: NCI-H1975; assay: Induction of apoptosis in human NCI-H1975 cells assessed as necrotic cells at 5 nM incubated for 72 hrs by propidium iodide and annexin-V FITC staining based flow cytometry (reference value: 0.01 %); assay type: functional
[7] = test system: NCI-H1975; assay: Inhibition of cell migration in human NCI-H1975 cells at 50 nM incubated for 24 hrs by phase contrast microscopy relative to control; assay type: functional; conditions: NCI-H1975, 24 h
[8] = test system: NCI-H1975; assay: Induction of apoptosis in human NCI-H1975 cells assessed as late apoptotic cells at 25 nM incubated for 48 hrs by propidium iodide and annexin-V FITC staining based flow cytometry (reference value: 0.23 %); assay type: functional
[9] = AUC (0 to infinity) in ICR mouse at 10 mg/kg, po; assay type: ADME, organism-based; parameters: dose 10 mg/kg, route oral, time infinity; conditions: in vivo
[10] = Clearance in ICR mouse at 5 mg/kg, iv; assay type: ADME, organism-based; conditions: in vivo
[11] = test system: NCI-H1975; assay: Induction of apoptosis in human NCI-H1975 cells assessed as early apoptotic cells at 5 nM incubated for 24 hrs by propidium iodide and annexin-V FITC staining based flow cytometry (reference value: 0.94 %); assay type: functional
[12] = test system: NCI-H1975; assay: Induction of apoptosis in human NCI-H1975 cells assessed as late apoptotic cells at 50 nM incubated for 24 hrs by propidium iodide and annexin-V FITC staining based flow cytometry (reference value: 0.23 %); assay type: functional
[13] = test system: NCI-H1975; assay: Induction of apoptosis in human NCI-H1975 cells assessed as necrotic cells at 25 nM incubated for 48 hrs by propidium iodide and annexin-V FITC staining based flow cytometry (reference value: 0.01 %); assay type: functional
[14] = MRT (0 to t) in ICR mouse at 5 mg/kg, iv; assay type: ADME, organism-based; conditions: in vivo
[15] = biological target: T1, Epidermal growth factor receptor; assay: Inhibition of recombinant human GST-tagged EGFR (668 to 1210 residues) expressed in baculovirus expression system using Tyr 04 as substrate incubated for 1 hr by Z'-LYTE assay
[16] = test system: NCI-H1975; assay: Induction of apoptosis in human NCI-H1975 cells assessed as necrotic cells at 50 nM incubated for 24 hrs by propidium iodide and annexin-V FITC staining based flow cytometry (reference value: 0.01 %); assay type: functional
[17] = test system: NCI-H1975; assay: Induction of apoptosis in human NCI-H1975 cells assessed as early apoptotic cells at 5 nM incubated for 48 hrs by propidium iodide and annexin-V FITC staining based flow cytometry (reference value: 0.95 %); assay type: functional
[18] = test system: NCI-H1975; assay: Antiproliferative activity against human NCI-H1975 cells expressing EGFR T790M/L858R mutant assessed as reduction in cell viability incubated for 72 hrs by MTT assay; assay type: functional, cell-based; conditions: nci-h1975
[19] = Half life in ICR mouse at 5 mg/kg, iv; assay type: ADME, organism-based; conditions: in vivo
[20] = Cmax in ICR mouse at 5 mg/kg, iv; assay type: ADME, organism-based; parameters: dose 5 mg/kg, route intravenous; conditions: in vivo
[21] = AUC (0 to t) in ICR mouse at 5 mg/kg, iv; assay type: ADME, organism-based; conditions: in vivo
[22] = test system: NCI-H1975; assay: Induction of apoptosis in human NCI-H1975 cells assessed as late apoptotic cells at 25 nM incubated for 72 hrs by propidium iodide and annexin-V FITC staining based flow cytometry (reference value: 0.01 %); assay type: functional
[23] = test system: NCI-H292; assay: Antiproliferative activity against human NCI-H292 cells expressing EGFR assessed as reduction in cell viability incubated for 72 hrs by MTT assay; assay type: functional, cell-based; conditions: nci-h292
[24] = test system: NCI-H1975; assay: Induction of apoptosis in human NCI-H1975 cells assessed as necrotic cells at 50 nM incubated for 48 hrs by propidium iodide and annexin-V FITC staining based flow cytometry (reference value: 0.01 %); assay type: functional
[25] = test system: NCI-H1975; assay: Induction of apoptosis in human NCI-H1975 cells assessed as necrotic cells at 5 nM incubated for 24 hrs by propidium iodide and annexin-V FITC staining based flow cytometry (reference value: 0.01 %); assay type: functional
[26] = test system: PC-9; assay: Antiproliferative activity against human PC9 cells expressing EGFR L858R mutant assessed as reduction in cell viability incubated for 72 hrs by MTT assay; assay type: functional, cell-based; conditions: pc-9
[27] = test system: NCI-H1975; assay: Induction of apoptosis in human NCI-H1975 cells assessed as viable cells at 50 nM incubated for 24 hrs by propidium iodide and annexin-V FITC staining based flow cytometry (reference value: 98.82 %); assay type: functional; conditions: NCI-H1975, 24 h, read-out: Activity
[28] = test system: NCI-H1975; assay: Induction of apoptosis in human NCI-H1975 cells assessed as early apoptotic cells at 5 nM incubated for 72 hrs by propidium iodide and annexin-V FITC staining based flow cytometry (reference value: 2.43 %); assay type: functional
[29] = AUC (0 to infinity) in ICR mouse at 5 mg/kg, iv; assay type: ADME, organism-based; parameters: dose 5 mg/kg, time infinity, route intravenous; conditions: in vivo
[30] = test system: NCI-H1975; assay: Induction of apoptosis in human NCI-H1975 cells assessed as viable cells at 25 nM incubated for 24 hrs by propidium iodide and annexin-V FITC staining based flow cytometry (reference value: 98.82 %); assay type: functional; conditions: NCI-H1975, 24 h, read-out: Activity
[31] = Selectivity index, ratio of IC50 for human HEK293A cells to IC50 for human NCI-H1975 cells expressing EGFR T790M/L858R mutant; assay type: toxicity
[32] = test system: NCI-H1975; assay: Induction of apoptosis in human NCI-H1975 cells assessed as early apoptotic cells at 50 nM incubated for 72 hrs by propidium iodide and annexin-V FITC staining based flow cytometry (reference value: 2.43 %); assay type: functional
[33] = AUC (0 to t) in ICR mouse at 10 mg/kg, po; assay type: ADME, organism-based; conditions: in vivo
[34] = test system: NCI-H1975; assay: Induction of apoptosis in human NCI-H1975 cells assessed as late apoptotic cells at 25 nM incubated for 24 hrs by propidium iodide and annexin-V FITC staining based flow cytometry (reference value: 0.23 %); assay type: functional

T1 sequence (P00533 whole entry): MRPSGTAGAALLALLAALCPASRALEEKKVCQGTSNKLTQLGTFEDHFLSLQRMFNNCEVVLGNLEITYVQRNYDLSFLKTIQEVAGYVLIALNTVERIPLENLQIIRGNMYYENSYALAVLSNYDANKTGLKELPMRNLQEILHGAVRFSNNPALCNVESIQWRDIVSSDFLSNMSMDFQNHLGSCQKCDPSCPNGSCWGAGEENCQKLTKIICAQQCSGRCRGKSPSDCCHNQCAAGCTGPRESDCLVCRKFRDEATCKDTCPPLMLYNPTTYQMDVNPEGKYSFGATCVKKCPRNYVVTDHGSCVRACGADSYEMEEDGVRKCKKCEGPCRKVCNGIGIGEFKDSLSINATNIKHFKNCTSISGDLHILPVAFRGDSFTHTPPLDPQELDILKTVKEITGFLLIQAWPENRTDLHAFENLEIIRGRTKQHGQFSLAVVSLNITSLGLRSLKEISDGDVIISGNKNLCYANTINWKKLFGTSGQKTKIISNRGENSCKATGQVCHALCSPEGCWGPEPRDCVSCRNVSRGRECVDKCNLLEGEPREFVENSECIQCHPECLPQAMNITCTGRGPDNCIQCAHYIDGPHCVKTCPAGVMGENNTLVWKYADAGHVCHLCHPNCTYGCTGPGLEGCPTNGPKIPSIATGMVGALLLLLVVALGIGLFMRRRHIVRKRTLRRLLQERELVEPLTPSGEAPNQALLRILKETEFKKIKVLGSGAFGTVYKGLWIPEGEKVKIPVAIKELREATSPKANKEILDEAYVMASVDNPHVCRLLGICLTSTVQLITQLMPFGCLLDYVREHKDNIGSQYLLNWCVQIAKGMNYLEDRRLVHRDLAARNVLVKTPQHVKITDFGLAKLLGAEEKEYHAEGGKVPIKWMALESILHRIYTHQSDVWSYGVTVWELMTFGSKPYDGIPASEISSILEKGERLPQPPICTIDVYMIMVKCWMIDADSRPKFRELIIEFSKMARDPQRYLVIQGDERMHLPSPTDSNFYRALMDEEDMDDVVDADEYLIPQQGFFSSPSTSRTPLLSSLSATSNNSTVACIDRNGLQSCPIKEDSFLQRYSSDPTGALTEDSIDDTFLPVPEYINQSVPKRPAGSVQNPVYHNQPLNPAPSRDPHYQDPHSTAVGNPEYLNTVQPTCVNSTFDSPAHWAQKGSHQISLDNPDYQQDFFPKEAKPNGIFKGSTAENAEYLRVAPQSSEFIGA

C=CC(=O)Nc1cc(Nc2nccc(-c3cn(C)c4ccccc34)n2)c(OC)cc1[S+]([O-])CCN(C)C (single isomer, unassigned; (-))
Activity [1]: 0.05%
Activity [2]: 51.86%
Activity [3]: 56.02%
Activity [4]: 22.23%
EC50 [5]: 90.2 nM
Activity [6]: 1.2%
inhibition at 0.05 µM [7]: 87.6%
Activity [8]: 2.73%
AUC(0-inf) [9]: 2000 ng·h/mL
clearance [10]: 63.9 mL/min/kg
Activity [11]: 14.89%
Activity [12]: 2.3%
Activity [13]: 0.69%
MRT last [14]: 1.15 h
IC50 [15]: 229 nM
Activity [16]: 0.45%
Activity [17]: 22.89%
IC50 [18]: 10 nM
half-life [19]: 1.12 h
Cmax [20]: 1610 ng/mL
AUC(0-t) [21]: 1290 ng·h/mL
Activity [22]: 21.68%
IC50 [23]: 1090 nM
Activity [24]: 0.71%
Activity [25]: 0.32%
IC50 [26]: 15 nM
viability at 0.05 µM [27]: 65.6%
Activity [28]: 21.59%
AUC(0-inf) [29]: 1300 ng·h/mL
viability at 0.025 µM [30]: 76.8%
Ratio IC50 [31]: 192
Activity [32]: 58.1%
AUC(0-t) [33]: 1910 ng·h/mL
Activity [34]: 0.86%
